According to patent EP4763839A1 (Pamplona Therapeutics (Shenzhen) Co., Ltd., priority 2023, dated 2025):

Target: T1, IRAK4 (Homo sapiens, UniProt Q9NWZ3)
T1 sequence (Q9NWZ3 1-460): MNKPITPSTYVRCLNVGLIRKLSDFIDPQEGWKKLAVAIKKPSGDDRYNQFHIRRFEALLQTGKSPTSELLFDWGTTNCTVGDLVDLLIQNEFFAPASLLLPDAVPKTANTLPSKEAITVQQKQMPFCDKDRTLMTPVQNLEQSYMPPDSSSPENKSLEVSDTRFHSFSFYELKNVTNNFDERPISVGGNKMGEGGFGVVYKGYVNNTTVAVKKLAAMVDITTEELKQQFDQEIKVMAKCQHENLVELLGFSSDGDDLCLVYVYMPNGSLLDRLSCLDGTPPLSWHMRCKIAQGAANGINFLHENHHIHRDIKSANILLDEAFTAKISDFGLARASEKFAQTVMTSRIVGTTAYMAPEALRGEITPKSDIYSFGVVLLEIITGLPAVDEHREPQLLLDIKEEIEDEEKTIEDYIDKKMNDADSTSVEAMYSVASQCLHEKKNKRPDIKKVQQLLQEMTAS
Assay: Assay for inhibitory effect of compound on IRAK4 kinase activity (KinEASE-STK S1 HTRF kit)
Assay type: biochemical
Conditions: kinase 8 nM, ATP 80 µM, 37°C 90 minutes; read-out: IRAK4 HTRF IC50
Procedure: Example 1: Kinase activity assay
Assay for inhibitory effect of compound on IRAK4 kinase activity
The inhibitory effect of the compound on IRAK4 kinase activity was measured using the KinEASE-STK S1 serine/threonine kinase kit (Cisbio). The specific method was as follows: the compound was dissolved in dimethyl sulfoxide and then subjected to 3-fold serial dilution in dimethyl sulfoxide, yielding final test compound concentrations in the reaction system ranging from 5,000 nM to 0.0254 nM. The kinase at a final concentration of 8 nM was added, followed by incubation at rt for 15 minutes. Subsequently, biotinylated STK1 substrate at a final concentration of 400 nM and adenosine triphosphate (ATP) at a final concentration of 80 µM were sequentially added, and the mixture was incubated at 37°C for 90 minutes. Then, the reaction was terminated by adding an anti-phosphoserine/threonine antibody conjugated with a europium cryptate and streptavidin-conjugated XL665 to the reaction system. After incubation at rt for 1 hour, the fluorescence intensity at emission wavelengths of 620 nm and 665 nm for each well was measured using an EnVision microplate reader (PerkinElmer) in HTRF mode. The ratio value was calculated using the formula: Ratio = (665 nm/620 nm)×10^4 The inhibition rate of the compound at each concentration was calculated using the formula: Inhibition% = [1-(Signal sample-Signal min)/(Signal max-Signal min)]×100. Subsequently, the dose-response curve was fitted by nonlinear curve fitting of log concentration versus inhibition rate using Fit Modela (205) in XLfit to give the IC50 value of the compound for inhibition of protein activity.

Compound | IC50 [nM]
O=C(Nc1cn(-c2ccccc2)nc1C1CC(O)C1)c1cccc(C(F)(F)F)n1 (stereo not shown) [Compound A65, N-(3-(3-hydroxycyclobutyl)-1-phenyl-1H-pyrazol-4-yl)-6-(trifluoromethyl)picolinamide] | > 1000
O=C(Nc1cn(-c2ccccc2)nc1C1CCC1)c1cccc(C(F)(F)F)n1 [Compound A72, N-(3-cyclobutyl-1-phenyl-1H-pyrazol-4-yl)-6-(trifluoromethyl)picolinamide] | > 1000
CC(O)c1nn(-c2ccccc2)cc1NC(=O)c1cccc(C(F)(F)F)n1 (stereo not shown) [Compound A75, N-(3-(1-hydroxyethyl)-1-phenyl-1H-pyrazol-4-yl)-6-(trifluoromethyl)picolinamide] | 100 to 1000
NC(=O)c1nn(-c2ccccc2)cc1NC(=O)c1cccc(-c2cc[nH]n2)n1 [Compound A88] | < 100
NC(=O)c1nn(-c2ccccc2)cc1NC(=O)c1cccc(-c2c[nH]cn2)n1 [Compound A90] | < 100
NC(=O)c1nn(-c2ccccc2)cc1NC(=O)c1cccc(-c2cc[nH]c2)n1 [Compound A91] | 100 to 1000
NS(=O)(=O)c1nn(-c2ccccc2)cc1NC(=O)c1cccc(-c2cc[nH]n2)n1 [Compound A92, N-(1-phenyl-3-sulfamoyl-1H-pyrazol-4-yl)-6-(1H-pyrazol-3-yl)picolinamide] | < 100
NS(=O)(=O)c1nn(-c2ccccc2)cc1NC(=O)c1cccc(-c2c[nH]cn2)n1 [Compound A94, 6-(1H-imidazol-4-yl)-N-(1-phenyl-3-sulfamoyl-1H-pyrazol-4-yl)picolinamide] | < 100
NS(=O)(=O)c1nn(-c2ccccc2)cc1NC(=O)c1cccc(-c2cc[nH]c2)n1 [Compound A95, N-(1-phenyl-3-sulfamoyl-1H-pyrazol-4-yl)-6-(1H-pyrrol-3-yl)picolinamide] | < 100
CS(=N)(=O)c1nn(-c2ccccc2)cc1NC(=O)c1cccc(-c2cc[nH]n2)n1 (stereo not shown) [Compound A96, N-(3-(S-methylsulfonimidoyl)-1-phenyl-1H-pyrazol-4-yl)-6-(1H-pyrazol-3-yl)picolinamide] | 100 to 1000
CS(=N)(=O)c1nn(-c2ccccc2)cc1NC(=O)c1cccc(-c2c[nH]cn2)n1 (stereo not shown) [Compound A98, 6-(1H-imidazol-4-yl)-N-(3-(S-methylsulfonimidoyl)-1-phenyl-1H-pyrazol-4-yl)picolinamide] | 100 to 1000
CC(C)n1cc(-c2ccccc2)nc1NC(=O)c1cccc(C(F)(F)F)n1 [Compound A107, N-(1-isopropyl-4-phenyl-1H-imidazol-2-yl)-6-(trifluoromethyl)picolinamide] | > 1000
CC(C)n1nc(-c2ccccc2)nc1NC(=O)c1cccc(C(F)(F)F)n1 [Compound A108, N-(1-Isopropyl-3-phenyl-1H-1,2,4-triazol-5-yl)-6-(trifluoromethyl)picolinamide] | > 1000
NC(=O)c1nn(C2CCN(CCN3CCN(c4ccc5c(c4)C(=O)N(C4CCC(=O)NC4=O)C5=O)CC3)CC2)cc1NC(=O)c1cccc(C(F)(F)F)n1 (stereo not shown) [Compound A109] | 100 to 1000
NC(=O)c1nn(-c2ccc(C(=O)N3CC(CNc4ccc5c(c4)C(=O)N(C4CCC(=O)NC4=O)C5=O)C3)cc2)cc1NC(=O)c1cccc(C(F)(F)F)n1 (stereo not shown) [Compound A110] | < 100
N#Cc1cnn2c(C(=O)Nc3cn(C4CC5(CCNCC5)C4)nc3C(F)F)ccc2c1 [Compound A229, 3-Cyano-N-(3-(difluoromethyl)-1-(7-azaspiro[3.5]nonan-2-yl)-1H-pyrazol-4-yl)pyrrolo[1,2-b]pyridazine-7-carboxamide] | < 100
N#Cc1cnn2c(C(=O)Nc3cn(-c4ccccc4)nc3C(F)F)ccc2c1 [Compound A233, 3-Cyano-N-(3-(difluoromethyl)-1-phenyl-1H-pyrazol-4-yl)pyrrolo[1,2-b]pyridazine-7-carboxamide] | < 100
O=C(Nc1cn(-c2ccccc2)nc1C(=O)CC(F)(F)F)c1cccc(-c2ccn[nH]2)n1 [Compound A236, N-(1-Phenyl-3-(3,3,3-trifluoropropanoyl)-1H-pyrazol-4-yl)-6-(1H-pyrazol-5-yl)picolinamide] | 100 to 1000
O=C(Nc1cn(-c2ccccc2)nc1C(F)F)c1cccc(-c2ccn[nH]2)n1 [Compound A239, N-(3-(Difluoromethyl)-1-phenyl-1H-pyrazol-4-yl)-6-(1H-pyrazol-5-yl)picolinamide] | < 100
[2H]C([2H])C(=O)c1nn(-c2ccccc2)cc1NC(=O)c1cccc(-c2ccn[nH]2)n1 [Compound A242, N-(3-(Acetyl-2,2-d2)-1-phenyl-1H-pyrazol-4-yl)-6-(1H-pyrazol-5-yl)picolinamide] | < 100
O=C(Nc1cn(-c2ccccc2)nc1C(=O)C(F)(F)F)c1cccc(-c2ccn[nH]2)n1 [Compound A243, N-(1-Phenyl-3-(2,2,2-trifluoroacetyl)-1H-pyrazol-4-yl)-6-(1H-pyrazol-5-yl)picolinamide] | < 100

Second part, the molecule after the results:

IC50 [nM] | Compound
> 1000 | N#Cc1nn(-c2ccccc2)cc1NC(=O)c1cccc(C(F)(F)F)n1 [Compound A64, N-(3-cyano-1-phenyl-1H-pyrazol-4-yl)-6-(trifluoromethyl)picolinamide]
> 1000 | O=C(Nc1cn(-c2ccccc2)nc1C1CC1)c1cccc(C(F)(F)F)n1 [Compound A71, N-(3-cyclopropyl-1-phenyl-1H-pyrazol-4-yl)-6-(trifluoromethyl)picolinamide]
100 to 1000 | O=C(Nc1cn(-c2ccccc2)nc1CO)c1cccc(C(F)(F)F)n1 [Compound A74, N-(3-(hydroxymethyl)-1-phenyl-1H-pyrazol-4-yl)-6-(trifluoromethyl)picolinamide]
100 to 1000 | O=C(Nc1cn(-c2ccccc2)nc1C(=O)NC1CC1)c1cccc(C(F)(F)F)n1 [Compound A86, N-(3-(cyclopropylcarbamoyl)-1-phenyl-1H-pyrazol-4-yl)-6-(trifluoromethyl)picolinamide]
< 100 | NC(=O)c1nn(-c2ccccc2)cc1NC(=O)c1cccc(-c2cn[nH]c2)n1 [Compound A89]
< 100 | NS(=O)(=O)c1nn(-c2ccccc2)cc1NC(=O)c1cccc(-c2cn[nH]c2)n1 [Compound A93]
< 100 | CS(=N)(=O)c1nn(-c2ccccc2)cc1NC(=O)c1cccc(-c2cn[nH]c2)n1 (stereo not shown) [Compound A97, N-(3-(S-methylsulfonimidoyl)-1-phenyl-1H-pyrazol-4-yl)-6-(1H-pyrazol-4-yl)picolinamide]
< 100 | CC(C)(O)c1nn(C2CC3(CCNCC3)C2)cc1NC(=O)c1ccc2cc(C#N)cnn12 [Compound A106, 3-Cyano-N-(3-(2-hydroxypropan-2-yl)-1-(7-azaspiro[3.5]nonan-2-yl)-1H-pyrazol-4-yl)pyrrolo[1,2-b]pyridazine-7-carboxamide]
< 100 | COc1nn(C2CC3(CCNCC3)C2)cc1NC(=O)c1ccc2cc(C#N)cnn12 [Compound A230, 3-Cyano-N-(3-methoxy-1-(7-azaspiro[3.5]nonan-2-yl)-1H-pyrazol-4-yl)pyrrolo[1,2-b]pyridazine-7-carboxamide]
< 100 | N#Cc1cnn2c(C(=O)Nc3cn(-c4ccccc4)nc3C(N)=O)ccc2c1 [Compound A231]
< 100 | CC(C)(O)c1nn(-c2ccccc2)cc1NC(=O)c1ccc2cc(C#N)cnn12 [Compound A232, 3-Cyano-N-(3-(2-hydroxypropan-2-yl)-1-phenyl-1H-pyrazol-4-yl)pyrrolo[1,2-b]pyridazine-7-carboxamide]
< 100 | [C-]#[N+]c1cnn2c(C(=O)Nc3cn(-c4ccccc4)nc3OC)ccc2c1 [Compound A234, 3-Isocyano-N-(3-methoxy-1-phenyl-1H-pyrazol-4-yl)pyrrolo[1,2-b]pyridazine-7-carboxamide]
< 100 | N#Cc1cnn2c(C(=O)Nc3cn(C4CCCCC4)nc3C(N)=O)ccc2c1 [Compound A235]
< 100 | O=C(Nc1cn(-c2ccccc2)nc1OCC(F)(F)F)c1cccc(-c2ccn[nH]2)n1 [Compound A238, N-(1-Phenyl-3-(2,2,2-trifluoroethoxy)-1H-pyrazol-4-yl)-6-(1H-pyrazol-5-yl)picolinamide]
< 100 | CC(C)(O)c1nn(-c2ccccc2)cc1NC(=O)c1cccc(-c2ccn[nH]2)n1 [Compound A240, N-(3-(2-Hydroxypropan-2-yl)-1-phenyl-1H-pyrazol-4-yl)-6-(1H-pyrazol-5-yl)picolinamide]
< 100 | CC(=O)c1nn(-c2ccccc2)cc1NC(=O)c1cccc(-c2ccn[nH]2)n1 [Compound A241, N-(3-Acetyl-1-phenyl-1H-pyrazol-4-yl)-6-(1H-pyrazol-5-yl)picolinamide]
